Experimental data from ChEMBL document CHEMBL1201862, “PubChem BioAssay data set” (2004).
One block for each molecule: values may come before it. Active and inactive are the calls of the source.

Key:
[1] = target: T1, High affinity choline transporter 1 (Homo sapiens, UniProt Q9GZV3); test: human choline transporter blockers, potency – cell-based, 5-point CRC, membrane potential dye, dose response (AID 504840); format: functional
T1 sequence (Q9GZV3 whole entry): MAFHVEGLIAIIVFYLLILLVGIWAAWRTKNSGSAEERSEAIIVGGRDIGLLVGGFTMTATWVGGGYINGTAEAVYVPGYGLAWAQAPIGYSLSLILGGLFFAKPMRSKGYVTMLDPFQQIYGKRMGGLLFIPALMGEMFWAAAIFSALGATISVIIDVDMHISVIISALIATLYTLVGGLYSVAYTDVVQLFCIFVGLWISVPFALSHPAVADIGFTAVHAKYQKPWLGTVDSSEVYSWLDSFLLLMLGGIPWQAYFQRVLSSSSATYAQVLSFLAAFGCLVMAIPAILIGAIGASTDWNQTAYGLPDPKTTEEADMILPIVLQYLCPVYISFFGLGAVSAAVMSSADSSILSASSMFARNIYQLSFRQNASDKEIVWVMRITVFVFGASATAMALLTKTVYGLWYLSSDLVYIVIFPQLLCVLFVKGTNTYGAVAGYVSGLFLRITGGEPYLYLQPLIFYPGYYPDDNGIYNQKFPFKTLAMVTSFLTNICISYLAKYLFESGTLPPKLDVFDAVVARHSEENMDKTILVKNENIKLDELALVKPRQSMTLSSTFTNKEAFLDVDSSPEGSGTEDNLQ

[2] = viability of HCT116 lacking mutant beta-catenin – cell-based, human colon tumor, dose response (AID 1045); format: functional;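 further: HCT116 colon tumor cells with beta catenin knocked out; cells exposed to compound for 60 hours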
Streptococcus = test: GAS UMAA2166 growth inhibition – luminescence, BacTiterGlo, counter-screen for streptokinase expression inhibitor project, dose response (AID 1915); format: functional, organism-based;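 further: potency for reduction of bacterial viability or growth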
[3] = reduction of Shn3 3'UTR-driven luciferase in osteoblasts – cell-based, Clone20 osteoblasts, firefly luciferase, cherry-picked, dose response (AID 624132); format: functional;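 further: firefly luciferase luminescence from reporter carrying the Shn3 3'UTR in osteoblasts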
[4] = target: T2, 1-phosphatidylinositol 4,5-bisphosphate phosphodiesterase gamma-1 (Homo sapiens, UniProt P19174); test: Counterscreen for inhibitors of phospholipase C isozymes (PLC-B3): Fluorescence-based biochemical high throughput dose response assay to identify inhibitors of phospholipase C isozymes (PLC-gamma1).
T2 sequence (P19174 whole entry): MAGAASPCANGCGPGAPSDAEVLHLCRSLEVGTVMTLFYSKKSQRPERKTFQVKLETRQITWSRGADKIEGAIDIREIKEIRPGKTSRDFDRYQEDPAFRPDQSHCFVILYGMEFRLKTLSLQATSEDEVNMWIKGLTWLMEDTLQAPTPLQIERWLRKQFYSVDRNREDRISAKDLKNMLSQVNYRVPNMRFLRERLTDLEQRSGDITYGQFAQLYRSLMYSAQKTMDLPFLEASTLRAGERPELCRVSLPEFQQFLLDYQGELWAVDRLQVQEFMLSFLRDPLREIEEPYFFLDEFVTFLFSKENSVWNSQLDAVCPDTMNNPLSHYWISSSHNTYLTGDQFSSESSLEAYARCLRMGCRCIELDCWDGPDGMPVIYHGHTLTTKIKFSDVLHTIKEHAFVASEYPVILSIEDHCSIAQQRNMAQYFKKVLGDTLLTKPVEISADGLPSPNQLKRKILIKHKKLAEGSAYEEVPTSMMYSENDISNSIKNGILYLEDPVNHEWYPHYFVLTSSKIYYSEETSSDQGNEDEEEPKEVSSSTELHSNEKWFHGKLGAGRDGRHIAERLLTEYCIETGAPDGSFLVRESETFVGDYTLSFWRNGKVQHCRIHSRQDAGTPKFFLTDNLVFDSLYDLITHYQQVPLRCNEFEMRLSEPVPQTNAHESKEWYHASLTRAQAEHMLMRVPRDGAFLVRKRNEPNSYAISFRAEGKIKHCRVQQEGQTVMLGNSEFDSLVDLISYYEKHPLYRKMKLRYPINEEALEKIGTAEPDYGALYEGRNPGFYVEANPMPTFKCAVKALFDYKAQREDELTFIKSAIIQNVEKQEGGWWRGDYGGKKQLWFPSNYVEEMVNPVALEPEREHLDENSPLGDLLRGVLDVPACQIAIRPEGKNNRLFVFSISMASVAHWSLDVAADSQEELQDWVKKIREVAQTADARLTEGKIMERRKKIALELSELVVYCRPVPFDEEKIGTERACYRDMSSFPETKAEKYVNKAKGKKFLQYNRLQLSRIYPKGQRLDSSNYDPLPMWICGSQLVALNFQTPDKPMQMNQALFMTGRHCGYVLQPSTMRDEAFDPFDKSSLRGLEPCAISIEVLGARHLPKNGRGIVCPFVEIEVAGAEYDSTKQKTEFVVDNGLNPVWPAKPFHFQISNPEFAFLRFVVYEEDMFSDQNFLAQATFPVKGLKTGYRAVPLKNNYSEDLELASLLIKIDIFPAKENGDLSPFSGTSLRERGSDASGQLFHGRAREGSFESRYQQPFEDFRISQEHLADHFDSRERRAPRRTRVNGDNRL

Paired box protein Pax-8 = Paired box protein Pax-8 (Homo sapiens, UniProt Q06710); test: PAX8 transcriptional activity inhibition in RMG-I – RMG-I cells, luciferase, cherry-pick, dose response (AID 687027); format: functional, cell-based;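 further: luciferase reporter driven by Pax8 target thyroperoxidase promoter measured by SteadyGlo luminescence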
[5] = target: Tyrosine-protein kinase BTK (Homo sapiens, UniProt Q06187); format: functional
[6] = target: Dual specificity tyrosine-phosphorylation-regulated kinase 3 (Homo sapiens, UniProt O43781); format: functional;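 further: measured as one member of a broad kinase panel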
[7] = target: Ribosomal protein S6 kinase alpha-3 (Homo sapiens, UniProt P51812); format: functional;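 further: measured within a kinome-wide profiling panel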
[8] = target: Tyrosine-protein kinase Lck (Homo sapiens, UniProt P06239); format: functional;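 further: lck was assayed as one member of a kinase panel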
Activin receptor type-1 = Activin receptor type-1 (Homo sapiens, UniProt Q04771); test: Navigating the Kinome. Panel member name: ACVR1; format: functional
[9] = target: Inhibitor of nuclear factor kappa-B kinase subunit epsilon (Homo sapiens, UniProt Q14164); test: Navigating the Kinome. Panel member name: IKBKE; format: functional
Beta-galactosidase = Beta-galactosidase (Escherichia coli, UniProt Q8VNN2); format: functional
[10] = target: C-C chemokine receptor type 6 (Homo sapiens, UniProt P51684); test: antagonism of CCR6 beta-arrestin recruitment – cell-based, luminescent beta-arrestin readout, dose response (AID 504728); format: functional
LIM domain kinase 1 = LIM domain kinase 1 (Homo sapiens, UniProt P53667); test: Navigating the Kinome. Panel member name: LIMK1; format: functional
[11] = target: Ribosomal protein S6 kinase alpha-5 (Homo sapiens, UniProt O75582); format: functional
Ribosomal protein S6 kinase alpha-5, sequence (O75582 whole entry): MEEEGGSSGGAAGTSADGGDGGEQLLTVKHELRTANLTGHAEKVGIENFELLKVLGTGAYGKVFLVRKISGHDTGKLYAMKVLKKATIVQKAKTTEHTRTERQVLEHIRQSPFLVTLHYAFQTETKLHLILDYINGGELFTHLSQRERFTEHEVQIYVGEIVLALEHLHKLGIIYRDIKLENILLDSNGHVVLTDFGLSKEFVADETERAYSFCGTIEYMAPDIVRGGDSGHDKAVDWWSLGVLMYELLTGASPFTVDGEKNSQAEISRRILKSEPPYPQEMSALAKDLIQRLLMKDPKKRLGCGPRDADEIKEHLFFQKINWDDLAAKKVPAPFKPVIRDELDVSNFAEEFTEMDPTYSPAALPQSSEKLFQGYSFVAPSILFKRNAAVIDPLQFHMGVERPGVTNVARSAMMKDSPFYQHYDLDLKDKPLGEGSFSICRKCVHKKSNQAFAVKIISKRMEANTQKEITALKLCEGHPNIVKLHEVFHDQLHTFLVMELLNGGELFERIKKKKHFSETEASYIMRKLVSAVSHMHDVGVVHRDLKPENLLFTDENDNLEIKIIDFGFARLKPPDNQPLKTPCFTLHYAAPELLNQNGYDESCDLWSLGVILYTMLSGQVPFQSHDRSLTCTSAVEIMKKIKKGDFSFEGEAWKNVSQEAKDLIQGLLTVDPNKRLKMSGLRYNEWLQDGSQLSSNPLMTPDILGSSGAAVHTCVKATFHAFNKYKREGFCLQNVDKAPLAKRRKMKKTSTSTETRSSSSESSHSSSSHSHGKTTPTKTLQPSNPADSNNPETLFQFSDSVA

Paired box protein Pax-8, sequence (Q06710 whole entry): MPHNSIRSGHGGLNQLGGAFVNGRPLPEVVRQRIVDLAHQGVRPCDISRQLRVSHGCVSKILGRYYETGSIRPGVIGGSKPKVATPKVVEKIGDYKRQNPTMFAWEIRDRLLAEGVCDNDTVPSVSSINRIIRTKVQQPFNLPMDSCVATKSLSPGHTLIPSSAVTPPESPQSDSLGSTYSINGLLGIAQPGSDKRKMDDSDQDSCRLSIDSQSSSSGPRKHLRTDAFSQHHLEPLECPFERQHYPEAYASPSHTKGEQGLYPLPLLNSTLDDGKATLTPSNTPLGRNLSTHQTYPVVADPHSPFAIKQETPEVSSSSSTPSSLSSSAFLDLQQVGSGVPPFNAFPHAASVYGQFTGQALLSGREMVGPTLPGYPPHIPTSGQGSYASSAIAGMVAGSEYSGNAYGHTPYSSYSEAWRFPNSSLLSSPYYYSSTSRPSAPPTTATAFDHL
Tyrosine-protein kinase BTK, sequence (Q06187 whole entry): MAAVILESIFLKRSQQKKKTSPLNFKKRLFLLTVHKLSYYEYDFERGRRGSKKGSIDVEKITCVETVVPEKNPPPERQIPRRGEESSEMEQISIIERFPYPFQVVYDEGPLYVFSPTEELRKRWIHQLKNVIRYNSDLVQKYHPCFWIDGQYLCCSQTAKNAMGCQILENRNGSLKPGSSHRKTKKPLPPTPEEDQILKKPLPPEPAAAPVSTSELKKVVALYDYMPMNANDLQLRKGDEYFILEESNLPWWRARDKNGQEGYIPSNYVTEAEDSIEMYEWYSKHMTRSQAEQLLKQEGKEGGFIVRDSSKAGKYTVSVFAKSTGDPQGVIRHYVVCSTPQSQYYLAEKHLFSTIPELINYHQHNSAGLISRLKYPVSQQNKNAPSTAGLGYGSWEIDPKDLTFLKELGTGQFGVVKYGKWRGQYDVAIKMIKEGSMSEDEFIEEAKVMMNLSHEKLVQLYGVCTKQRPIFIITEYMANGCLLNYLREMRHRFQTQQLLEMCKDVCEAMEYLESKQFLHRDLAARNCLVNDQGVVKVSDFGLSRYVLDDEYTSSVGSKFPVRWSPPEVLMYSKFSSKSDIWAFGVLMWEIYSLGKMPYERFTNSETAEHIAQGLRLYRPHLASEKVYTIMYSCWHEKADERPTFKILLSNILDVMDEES
Tyrosine-protein kinase Lck, sequence (P06239 whole entry): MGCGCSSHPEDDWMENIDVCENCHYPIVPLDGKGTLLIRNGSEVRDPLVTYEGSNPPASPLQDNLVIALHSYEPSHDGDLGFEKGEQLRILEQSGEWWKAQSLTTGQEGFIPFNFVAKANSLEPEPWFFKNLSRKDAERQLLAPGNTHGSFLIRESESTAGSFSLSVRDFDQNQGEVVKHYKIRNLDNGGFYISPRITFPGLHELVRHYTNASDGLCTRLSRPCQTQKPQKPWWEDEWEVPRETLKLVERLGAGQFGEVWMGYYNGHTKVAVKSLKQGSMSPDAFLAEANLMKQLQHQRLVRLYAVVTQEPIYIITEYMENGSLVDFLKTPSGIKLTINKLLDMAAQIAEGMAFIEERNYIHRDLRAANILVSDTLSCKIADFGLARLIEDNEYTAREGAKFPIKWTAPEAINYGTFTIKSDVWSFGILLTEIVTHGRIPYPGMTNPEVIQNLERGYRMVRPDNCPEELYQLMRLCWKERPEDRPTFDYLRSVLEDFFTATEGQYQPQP
Activin receptor type-1, sequence (Q04771 whole entry): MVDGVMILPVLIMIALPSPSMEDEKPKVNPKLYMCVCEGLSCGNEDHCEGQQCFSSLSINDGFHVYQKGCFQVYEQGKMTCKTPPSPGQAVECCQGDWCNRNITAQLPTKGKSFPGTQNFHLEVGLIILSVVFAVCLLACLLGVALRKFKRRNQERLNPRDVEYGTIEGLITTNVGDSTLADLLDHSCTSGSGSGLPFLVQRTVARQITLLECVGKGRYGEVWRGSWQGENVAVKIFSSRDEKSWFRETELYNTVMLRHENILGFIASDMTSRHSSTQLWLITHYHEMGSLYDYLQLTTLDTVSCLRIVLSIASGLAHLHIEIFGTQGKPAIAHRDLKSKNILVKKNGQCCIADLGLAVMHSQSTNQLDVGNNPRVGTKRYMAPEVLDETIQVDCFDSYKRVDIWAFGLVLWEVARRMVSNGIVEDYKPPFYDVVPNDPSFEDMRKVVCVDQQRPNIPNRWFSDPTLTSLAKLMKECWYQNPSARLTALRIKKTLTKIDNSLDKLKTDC
Dual specificity tyrosine-phosphorylation-regulated kinase 3, sequence (O43781 whole entry): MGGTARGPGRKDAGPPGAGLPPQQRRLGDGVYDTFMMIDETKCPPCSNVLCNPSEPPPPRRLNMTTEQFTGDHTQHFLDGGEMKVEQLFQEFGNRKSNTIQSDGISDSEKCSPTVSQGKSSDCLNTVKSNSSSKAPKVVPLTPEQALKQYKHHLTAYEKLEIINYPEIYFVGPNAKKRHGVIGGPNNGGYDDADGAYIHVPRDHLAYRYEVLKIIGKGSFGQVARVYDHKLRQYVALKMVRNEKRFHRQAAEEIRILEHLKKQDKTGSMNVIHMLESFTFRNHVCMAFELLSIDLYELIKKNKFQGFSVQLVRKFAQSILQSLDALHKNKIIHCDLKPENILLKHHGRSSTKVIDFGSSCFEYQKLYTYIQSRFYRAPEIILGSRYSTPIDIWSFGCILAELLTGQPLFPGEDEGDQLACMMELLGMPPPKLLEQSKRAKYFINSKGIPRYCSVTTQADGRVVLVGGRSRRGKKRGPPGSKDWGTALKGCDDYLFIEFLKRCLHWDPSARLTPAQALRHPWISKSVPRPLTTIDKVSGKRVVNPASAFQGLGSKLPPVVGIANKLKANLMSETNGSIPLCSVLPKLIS
LIM domain kinase 1, sequence (P53667 whole entry, the tested form may be a part): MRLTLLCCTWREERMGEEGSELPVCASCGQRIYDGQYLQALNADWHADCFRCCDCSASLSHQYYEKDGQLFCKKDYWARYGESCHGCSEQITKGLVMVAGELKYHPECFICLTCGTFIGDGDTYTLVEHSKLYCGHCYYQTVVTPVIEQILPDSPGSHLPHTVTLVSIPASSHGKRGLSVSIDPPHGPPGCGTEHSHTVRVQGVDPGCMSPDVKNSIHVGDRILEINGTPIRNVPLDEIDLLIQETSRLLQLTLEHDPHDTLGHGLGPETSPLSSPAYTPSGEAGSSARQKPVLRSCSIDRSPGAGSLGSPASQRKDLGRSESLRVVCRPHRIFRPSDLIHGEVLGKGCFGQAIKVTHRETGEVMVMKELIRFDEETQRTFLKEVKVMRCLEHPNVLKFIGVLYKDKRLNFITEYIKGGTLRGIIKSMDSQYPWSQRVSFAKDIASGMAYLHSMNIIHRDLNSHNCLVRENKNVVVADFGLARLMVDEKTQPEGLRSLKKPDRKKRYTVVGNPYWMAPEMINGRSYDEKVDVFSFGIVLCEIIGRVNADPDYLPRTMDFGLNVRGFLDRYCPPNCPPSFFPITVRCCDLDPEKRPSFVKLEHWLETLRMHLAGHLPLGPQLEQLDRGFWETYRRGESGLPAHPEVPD
Ribosomal protein S6 kinase alpha-3, sequence (P51812 whole entry): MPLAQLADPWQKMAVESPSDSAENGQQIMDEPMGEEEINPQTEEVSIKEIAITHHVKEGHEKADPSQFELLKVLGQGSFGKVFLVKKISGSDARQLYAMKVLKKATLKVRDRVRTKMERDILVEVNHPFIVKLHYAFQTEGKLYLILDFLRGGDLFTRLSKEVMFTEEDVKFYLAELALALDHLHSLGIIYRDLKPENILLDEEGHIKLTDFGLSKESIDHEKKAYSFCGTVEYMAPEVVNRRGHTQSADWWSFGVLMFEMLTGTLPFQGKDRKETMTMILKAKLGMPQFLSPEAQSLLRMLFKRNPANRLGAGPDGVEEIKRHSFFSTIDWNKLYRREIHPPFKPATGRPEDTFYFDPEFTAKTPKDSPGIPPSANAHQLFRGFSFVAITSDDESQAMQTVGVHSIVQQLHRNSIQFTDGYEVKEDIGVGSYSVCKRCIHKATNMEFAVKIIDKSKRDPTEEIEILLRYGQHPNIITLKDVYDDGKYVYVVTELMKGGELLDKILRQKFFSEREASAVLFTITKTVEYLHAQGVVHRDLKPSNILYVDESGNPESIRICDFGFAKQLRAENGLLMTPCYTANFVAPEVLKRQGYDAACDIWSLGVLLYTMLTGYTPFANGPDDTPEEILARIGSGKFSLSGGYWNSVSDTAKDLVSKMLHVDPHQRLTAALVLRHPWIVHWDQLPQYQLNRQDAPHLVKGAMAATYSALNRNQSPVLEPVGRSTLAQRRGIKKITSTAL

Compound: O=C(O)c1ccc(NC2=C(Cl)C(=O)c3ccccc3C2=O)cc1
IC50 [1]: 14.5 µM (active)

Compound: O=C(O)c1ccc2c3c(ncnc13)-c1ccccc1C2=O
EC50 [2]: 13.4 µM (active)
EC50 (Streptococcus): > 150 µM (not active)

Compound: CCOC(=O)c1c2c(n(Cc3ccccc3)c1C)C(=O)C(=O)c1ccccc1-2
AC50 [3]: 2.3 µM (active)
IC50 [4]: 28.3 µM (inactive)
AC50 (Paired box protein Pax-8): 1.98 µM (active)

Ki [5]: > 1.26 µM (inactive)
Ki [6]: > 6.31 µM (inactive)
Ki [7]: > 5.01 µM (inactive)
Ki [8]: > 2.51 µM (inactive)
Ki (Activin receptor type-1): 0.316 µM (active)
Ki [9]: > 3.16 µM (inactive)
Compound: Cc1ccc2nccc(NC(=O)Nc3cccc(C(F)(F)F)n3)c2c1

Compound: Cc1c(/N=C2\C=CC(=O)c3ccccc32)c(=O)n(-c2ccccc2)n1C
EC50 (Beta-galactosidase): > 31.5 µM (inactive)
IC50 [10]: > 66.6 µM (inactive)

Compound: COc1cc2c(cc1F)C(c1ccccc1Cl)=Nc1c(n[nH]c1C)N2 [RG-1530]
Ki (LIM domain kinase 1): 0.501 µM (active)
Ki [11]: > 2 µM (inactive)
